Assay results taken from patent US8624034B2, “Fluoro-pyridinone derivatives useful as antibacterial agents” (Pfizer Inc., priority 2011, dated 2014).
Values after ≈ are worked out from the molar mass of the structure shown.

Tests used:
PA:UC12120 = assay: MIC determination, PA:UC12120 (Table 3); format: cell-based, Pseudomonas aeruginosa; details: Pseudomonas aeruginosa, UC12120, Table 3, lower of duplicate values
Protocol: (§1) The in vitro antibacterial activity of compounds described in the Examples was evaluated by minimum inhibitory concentration (MIC) testing according to Clinical and Laboratory Standards Institute (CLSI). See: Clinical and Laboratory Standards Institute. Methods for Dilution Antimicrobial Susceptibility Tests for Bacteria that Grow Aerobically; Approved Standard-Eighth Edition. CLSI document M7-A8 [ISBN 1-56238-689-1]. Clinical and Laboratory Standards Institute, 940 West Valley Road, Suite 1400, Wayne, Pa. 19087-1898 USA, 2006; also Clinical and Laboratory Standards Institute. Performance Standards for Antimicrobial Susceptibility Testing; Twentieth Informational Supplement. CLSI document M100-S20 [ISBN 1-56238-716-2]. Clinical and Laboratory Standards Institute.
(§2) The MIC determination is a standard laboratory method for evaluating the antibacterial activity of a compound. The MIC represents the lowest drug concentration that inhibits visible growth of bacteria following overnight incubation. […] Typically, the drug concentration range is broken down into 2-fold increments (e.g. 0.06 μg/mL, 0.12 μg/mL. 0.25 μg/mL, 0.50 μg/mL, 1.0 μg/mL, etc.) and the various drug concentrations are all individually incubated overnight with approximately the same number of bacteria. The MIC is then determined by visually inspecting the drug effect at each concentration, and identifying the lowest drug concentration that has inhibited bacterial growth as compared to the drug free control. Typically, bacteria continue to grow at drug concentrations lower than the MIC and don't grow at concentrations at and above the MIC.
(§3) The MIC values described in Table 2 and 3 below were derived from assays wherein each test compound was evaluated in duplicate. In cases where the duplicate values varied by 0-2-fold, the lower of the two values was reported below. Generally speaking, if the duplicate values varied by more than 2-fold, the assay was considered non-valid and was repeated until the variation between duplicate runs was ≦2-fold. In line with the CLSI guidelines referred to above, both control organisms and reference compounds were utilized in each MIC assay to provide proper quality control. MIC values generated with these control organisms and reference compounds were required to fall within a defined range for the assay to be considered valid and be included herein. Those skilled in the art will recognize that MIC values can and do vary from experiment to experiment. Generally speaking, it should be recognized that MIC values often vary +/−2-fold from experiment to experiment. While a single MIC is reported for each compound and each microorganism, the reader should not conclude that each compound was only tested once. Several of the compounds were subjected to multiple tests. The data reported in Tables 2 and 3 is reflective of the compounds relative activity and different MICs may have been generated on these occasions in line with the guidelines described above.
In Table 3 below, column 1 corresponds to the Example number, column 2 provides the IUPAC name, columns 3-6 provide in vitro biological data generated in the same manner as in Table 2, columns 7 and 8 provide the retention times and mass spectra generated via LCMS, using the method described below. All data is not currently available for all compounds, as indicated by a blank cell in Table 3.

[1] = biological target: T1, Pseudomonas aeruginosa LpxC enzyme (Pseudomonas aeruginosa, UniProt P47205); assay: IC50 assay, LpxC enzyme from P. aeruginosa (PA LpxC enzyme IC50); format: biochemical; details: Table 3; LpxC enzyme 0.1 nM, 25° C., 1 hour; read-out: PA:IC50
T1 construct: made in house; host or cells: E. coli
T1 sequence (P47205 1-303): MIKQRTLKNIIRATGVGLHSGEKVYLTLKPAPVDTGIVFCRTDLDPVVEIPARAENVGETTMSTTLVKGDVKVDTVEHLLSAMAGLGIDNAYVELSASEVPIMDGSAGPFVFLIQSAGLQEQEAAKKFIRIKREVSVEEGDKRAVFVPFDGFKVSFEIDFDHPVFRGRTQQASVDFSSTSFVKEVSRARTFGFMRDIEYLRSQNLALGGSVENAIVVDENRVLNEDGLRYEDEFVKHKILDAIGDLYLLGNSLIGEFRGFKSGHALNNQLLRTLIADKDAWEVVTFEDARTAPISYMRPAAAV
Protocol: In order to assess the compounds biological activity, selected in vitro assays were conducted on selected compounds. One of the assays measured the compounds ability to disrupt the synthesis of lipopolysaccharide, LPS, which is a component of the outer membrane of Gram-negative bacteria. Disruption of this synthesis is lethal to the bacteria. The assay determined the compound's ability to inhibit LpxC, which is the first enzyme in the biosynthetic pathway for LPS (measured as IC50). Additionally, MICs (minimal inhibitory concentrations) were determined for several bacteria. The specific protocols are described below:
A) IC50 Assay, LpxC Enzyme from P. aeruginosa (Labeled as PA LpxC Enzyme IC50):
At the end of 1 hour, 5 ul of 1 N HCl was added to stop the enzyme reaction, the plates were centrifuged, and then processed with the BioTrove Rapidfire HTMS Mass Spectrometry System. A no-enzyme control was used in calculating the IC50 values from the percent conversion values.

[2] = system: Escherichia coli EC-1: VOGEL, mouse virulent; assay: MIC determination, EC-1; format: cell-based; details: Escherichia coli, read-out: EC-1 (MIC), Table 3, lower of duplicate values
Protocol: as §1, §2, §3
(§4) The following bacterial strains were used in these MIC determinations:
3) Escherichia coli EC-1: VOGEL, mouse virulent labeled as EC-1 in Tables 2 and 3;

[3] = system: Acinetobacter baumannii/haemolyticus, multidrug-resistant clinical isolate (AB-3167); assay: MIC determination, AB-3167; format: cell-based; details: Table 3, lower of duplicate values
Protocol: as §1, §2, §3, §4
2) Acinetobacter baumannii/haemolyticus: Multidrug-resistant clinical isolate labeled as AB-3167 in Tables 2 and 3;

| Structure (SMILES) | MIC (PA:UC12120) [µg/mL] | IC50 [1] [nM] | MIC [2] [µg/mL] | MIC [3] [µg/mL] |
| --- | --- | --- | --- | --- |
| COc1ccccc1-c1cc(=O)n(CCC(C)(C(=O)NO)S(C)(=O)=O)cc1F (stereo not drawn) [Example 125, 4-[5-fluoro-4-(2-methoxyphenyl)-2-oxopyridin-1(2H)-yl]-N-hydroxy-2-methyl-2-(methylsulfonyl)butanamide] | 8 (≈ 19.4 µM) | 12.9 | 64 (≈ 155 µM) | > 64 |
| CC(CCn1cc(F)c(-c2ccc(Cl)cn2)cc1=O)(C(=O)NO)S(C)(=O)=O (stereo not drawn) [Example 90, 4-(5-chloro-5′-fluoro-2′-oxo-2,4′-bipyridin-1′(2′H)-yl)-N-hydroxy-2-methyl-2-(methylsulfonyl)butanamide] | 16 (≈ 38.3 µM) | 12.5 | 64 (≈ 153 µM) | > 64 |
| CC(CCn1cc(F)c(-c2cc(F)cc(Cl)c2)cc1=O)(C(=O)NO)S(C)(=O)=O (stereo not drawn) [Example 56, 4-[4-(3-chloro-5-fluorophenyl)-5-fluoro-2-oxopyridin-1(2H)-yl]-N-hydroxy-2-methyl-2-(methylsulfonyl)butanamide] | 2 (≈ 4.6 µM) | 2 | 8 (≈ 18.4 µM) | > 64 |
| Cc1ncc(-c2cc(=O)n(CCC(C)(C(=O)NO)S(C)(=O)=O)cc2F)cc1F (stereo not drawn) [Example 83, 4-(5,5′-difluoro-6-methyl-2′-oxo-3,4′-bipyridin-1′(2′H)-yl)-N-hydroxy-2-methyl-2-(methylsulfonyl)butanamide] | 32 (≈ 77 µM) | 27.5 | > 64 | > 64 |
| CCOc1cc(-c2cc(=O)n(CCC(C)(C(=O)NO)S(C)(=O)=O)cc2F)ccn1 (stereo not drawn) [Example 92, 4-(2′-ethoxy-5-fluoro-2-oxo-4,4′-bipyridin-1(2H)-yl)-N-hydroxy-2-methyl-2-(methylsulfonyl)butanamide] | 8 (≈ 18.7 µM) | 5.7 | 8 (≈ 18.7 µM) | > 64 |
| COCc1ccccc1-c1cc(=O)n(CCC(C)(C(=O)NO)S(C)(=O)=O)cc1F (stereo not drawn) [Example 110, 4-{5-fluoro-4-[2-(methoxymethyl)phenyl]-2-oxopyridin-1(2H)-yl}-N-hydroxy-2-methyl-2-(methylsulfonyl)butanamide] | > 64 | > 100 | > 64 | > 64 |
| COc1ncccc1-c1cc(=O)n(CCC(C)(C(=O)NO)S(C)(=O)=O)cc1F (stereo not drawn) [Example 69, 4-(5′-fluoro-2-methoxy-2′-oxo-3,4′-bipyridin-1′(2′H)-yl)-N-hydroxy-2-methyl-2-(methylsulfonyl)butanamide] | 8 (≈ 19.4 µM) | 16.6 | 64 (≈ 155 µM) | > 64 |
| CC(CCn1cc(F)c(-c2cnc3ccoc3c2)cc1=O)(C(=O)NO)S(C)(=O)=O (stereo not drawn) [Example 72, 4-(5-fluoro-4-furo[3,2-b]pyridin-6-yl-2-oxopyridin-1(2H)-yl)-N-hydroxy-2-methyl-2-(methylsulfonyl)butanamide] | 32 (≈ 75.6 µM) | 34.8 | 64 (≈ 151 µM) | > 64 |
| CC(CCn1cc(F)c(-c2ccc(Cl)c(O)c2)cc1=O)(C(=O)NO)S(C)(=O)=O (stereo not drawn) [Example 109, 4-[4-(4-chloro-3-hydroxyphenyl)-5-fluoro-2-oxopyridin-1(2H)-yl]-N-hydroxy-2-methyl-2-(methylsulfonyl)butanamide] | 32 (≈ 73.9 µM) | 7.3 | 32 (≈ 73.9 µM) | > 64 |
| CC(CCn1cc(F)c(-c2ccncc2F)cc1=O)(C(=O)NO)S(C)(=O)=O (stereo not drawn) [Example 73, 4-(3′,5-difluoro-2-oxo-4,4′-bipyridin-1(2H)-yl)-N-hydroxy-2-methyl-2-(methylsulfonyl)butanamide] | 8 (≈ 19.9 µM) | 8.3 | > 64 | > 64 |
| CC(CCn1cc(F)c(-c2ccc3cn[nH]c3c2)cc1=O)(C(=O)NO)S(C)(=O)=O (stereo not drawn) [Example 51, 4-[5-fluoro-4-(1H-indazol-6-yl)-2-oxopyridin-1(2H)-yl]-N-hydroxy-2-methyl-2-(methylsulfonyl)butanamide] | > 64 | 3.9 | > 64 | > 64 |
| CC(CCn1cc(F)c(-c2cccc(F)c2)cc1=O)(C(=O)NO)S(C)(=O)=O (stereo not drawn) [Example 116, 4-[5-fluoro-4-(3-fluorophenyl)-2-oxopyridin-1(2H)-yl]-N-hydroxy-2-methyl-2-(methylsulfonyl)butanamide] | 1 (≈ 2.5 µM) | 1 | 4 (≈ 9.99 µM) | > 64 |
| CC(CCn1cc(F)c(-c2ccccc2F)cc1=O)(C(=O)NO)S(C)(=O)=O (stereo not drawn) [Example 103, 4-[5-fluoro-4-(2-fluorophenyl)-2-oxopyridin-1(2H)-yl]-N-hydroxy-2-methyl-2-(methylsulfonyl)butanamide] | 0.5 (≈ 1.25 µM) | 1.4 | 4 (≈ 9.99 µM) | > 64 |
| CC(CCn1cc(F)c(-c2ccc3c(c2)C(=O)NC3)cc1=O)(C(=O)NO)S(C)(=O)=O (stereo not drawn) [Example 50, 4-[5-fluoro-2-oxo-4-(3-oxo-2,3-dihydro-1H-isoindol-5-yl)pyridin-1(2H)-yl]-N-hydroxy-2-methyl-2-(methylsulfonyl)butanamide] | > 64 | 68.2 | > 64 | > 64 |
| CC(CCn1cc(F)c(-c2ccc(O)cc2)cc1=O)(C(=O)NO)S(C)(=O)=O (stereo not drawn) [Example 53, 4-[5-fluoro-4-(4-hydroxyphenyl)-2-oxopyridin-1(2H)-yl]-N-hydroxy-2-methyl-2-(methylsulfonyl)butanamide] | 64 (≈ 161 µM) | 4.2 | > 64 | > 64 |
| CC(CCn1cc(F)c(-c2ccc(Cl)cc2F)cc1=O)(C(=O)NO)S(C)(=O)=O (stereo not drawn) [Example 66, 4-[4-(4-chloro-2-fluorophenyl)-5-fluoro-2-oxopyridin-1(2H)-yl]-N-hydroxy-2-methyl-2-(methylsulfonyl)butanamide] | 0.5 (≈ 1.15 µM) | 0.8 | 0.5 (≈ 1.15 µM) | 64 (≈ 147 µM) |
| COc1cccc(-c2cc(=O)n(CCC(C)(C(=O)NO)S(C)(=O)=O)cc2F)c1F (stereo not drawn) [Example 118, 4-[5-fluoro-4-(2-fluoro-3-methoxyphenyl)-2-oxopyridin-1(2H)-yl]-N-hydroxy-2-methyl-2-(methylsulfonyl)butanamide] | 1 (≈ 2.32 µM) | 0.7 | 1 (≈ 2.32 µM) | > 64 |
| CNC(=O)c1ccc(-c2cc(=O)n(CCC(C)(C(=O)NO)S(C)(=O)=O)cc2F)cc1 (stereo not drawn) [Example 84, 4-{5-fluoro-1-[4-(hydroxyamino)-3-methyl-3-(methylsulfonyl)-4-oxobutyl]-2-oxo-1,2-dihydropyridin-4-yl}-N-methylbenzamide] | > 64 | 14.5 | > 64 | > 64 |
